Measurements taken from patent US8637252B2, “Methods and compositions for determining altered susceptibility of HIV-1 to anti-HIV drugs” (Monogram Biosciences, Inc., priority 2011, dated 2014).
Several values for one entry are separate records, joined by “and”; a condition that tells them apart may be missing. Equal entries are not always repeated.

What was measured:
[1] = system: HIV-1 (patient-derived POL segment); assay: phenotypic drug resistance test, resistance test vectors with patient-derived POL segment (entire pol gene), luciferase, 293 cells; format: cell-based
Source text: Patient-derived segment(s) corresponding to the entire pol gene, encoding HIV protease, reverse transcriptase (including RNAse H), and integrase (hereinafter “POL”), the portion of pol encoding amino acids 1-305 of reverse transcriptase (hereinafter “PR-RT”), the portion of pol encoding amino acids 319-440 of reverse transcriptase (including RNAse H), and integrase (hereinafter “RHIN”), were amplified by the reverse transcription-polymerase chain reaction method (RT-PCR) using viral RNA isolated from viral particles present in the plasma or serum of HIV-infected individuals as described below. The portion of pol encoding protease, amino acids 1-531 of reverse transcriptase (including RNase H) (hereinafter “PRRT-RH”), or the portion of pol encoding protease, reverse transcriptase (including RNAse H) and integrase (hereinafter “PRRT-RHIN”), were assembled from amplicons described above by standard recombinant DNA techniques involving a KpnI restriction site at amino acid 400 or a Pin A1 site at amino acid 315.
Virus was pelleted by centrifugation at 20,400×g for 60 min from plasma (typically, 1 ml) prepared from blood samples collected in evacuated tubes containing either EDTA, acid-citrate dextrose, or heparin as an anticoagulant. Virus particles were disrupted by resuspending the pellets in 200 [1.1 of lysis buffer (4 M guanidine thiocyanate, 0.1 M Tris HCl (pH 8.0), 0.5% sodium lauryl sarcosine, 1% dithiothreitol). RNA was extracted from viral lysates by using oligo(dT) linked to magnetic beads (Dynal, Oslo, Norway). Reverse transcription was performed with Superscript III (Invitrogen) at 50 degrees for 1 hour using primer 1.
From the resultant cDNA either POL or RHIN sequences were amplified using the Advantage High Fidelity PCR kit (BD Biosciences; Clontech). POL amplification products are made using forward Primer 3 containing an Apal site and reverse Primer 4 containing a Xho 1 site. RHIN amplification products are made using forward Primer 2 containing a P1NA1 site and reverse Primer 4 containing a Xho 1 site.
A retroviral vector designed to measure antiretroviral drug susceptibility was constructed by using an infectious molecular clone of HIV-1. The vector, referred to herein as an indicator gene viral vector (IGVV), is replication defective and contains a luciferase expression cassette inserted within a deleted region of the envelope (env) gene. The IGVV is described in U.S. Pat. No. 5,837,464 (International Publication Number WO 97/27319) which is hereby incorporated by reference in its entirety. This retroviral vector was further modified to allow insertion of either the entire pol gene (POL) or the portion of poi encoding amino acids 319-440 of reverse transcriptase, the RNase H portion of reverse transcriptase, and integrase (REIN) by engineering an Xho l restriction enzyme recognition site into vif. Prior to doing this, an Xho 1 site in nef was deleted. Resistance Test vectors (RTVs) were constructed by incorporating amplified POL or RHIN into the IGVV by using Apal and Xhol or PinAI and Xho 1 restriction sites respectively. RTVs were prepared as libraries (pools) in order to capture and preserve the pol or RHIN sequence heterogeneity of the virus in the patient. POL amplification products were digested with Apal and Xhol, purified by agarose gel electrophoresis, and ligated to ApaI- and Xhol-digested IGVV DNA. RHIN amplification products were digested with PinAI and Xho/, purified by agarose gel electrophoresis, and ligated to PinAI and Xhol-digested IGVV DNA. Ligation reactions were used to transform competent Escherichia coli (Invitrogen, Carlsbad, Calif.). An aliquot of each transformation was plated onto agar, and colony counts were used to estimate the number of patient-derived segments represented in each RTV library. RTV libraries that comprised less than 50 members are not considered representative of the patient virus. […]

[2] = system: HIV-1 patient-derived test vectors with site-directed reverse transcriptase mutations; assay: phenotypic drug resistance test, site-directed reverse transcriptase mutants in patient backgrounds; format: cell-based
Procedure: In addition, using conventional technique, the T369I mutation was introduced into a resistance test vector comprising PR-RT segment derived from patient sample 62, which comprises mutations A62V, Q102K, K103N, K122E, D123N, C162S, D177E, 1178L, M184V, T200A, Q207E, T215Y, P243S, V245Q, A272P and R277K in reverse transcriptase. Among these mutations, K103N correlates with resistance to a number of NNRTIs, including NVP. This patient sample was tested for resistance to an NNRTI using the methods described above.
(§1) To further analyze the effects of N348I, T369I, and E399D on NNRTI resistance, an additional series of site directed mutants was constructed in non-wild-type backgrounds. In particular, site-directed mutants comprising the N348I, T369I, or E399D mutation were constructed in POL-containing test vectors obtained from three different patient samples. Results from these experiments are presented as FIG. 11.
as §1, with “on AZT” for “on NNRTI”, “the N3481,” for “the N348I,”, “from two” for “from three”, “samples.” for “samples. Results from these experiments are presented as FIG. 11.”

[3] = Sample 47 (K103K/N, V106V/A, Y181Y/C, G190G/A)
[4] = Sample 58 (K103N, Y181Y/C, G190G/A)
[5] = Sample 62 (K103H, P225P/H, T369T/I)
[6] = Sample 90 (K103K/N, Y181C, G190A)

Cc1ccnc2c1NC(=O)c1cccnc1N2C1CC1 [NVP, nevirapine]
fold change in IC50, pol ([1]; Sample 31 (K103N)): 400.0 fold | pol/PR-RT ratio ([1]; Sample 31 (K103N)): 4.5 | fold change in IC50, pol ([1]; Sample 33 (K103S)): 25.1 fold | pol/PR-RT ratio ([1]; Sample 33 (K103S)): 1.1 | fold change in IC50, pol ([1]; Sample 34): 0.3 fold | pol/PR-RT ratio ([1]; Sample 34): 1.3 | fold change in IC50, pol ([1]; Sample 35 (K103H)): 28.3 fold | pol/PR-RT ratio ([1]; Sample 35 (K103H)): 1.1 | fold change in IC50, pol ([1]; Sample 36 (K103K/W)): 2.4 fold | pol/PR-RT ratio ([1]; Sample 36 (K103K/W)): 0.2 | fold change in IC50, pol ([1]; Sample 38 (K103N)): 81.0 fold | pol/PR-RT ratio ([1]; Sample 38 (K103N)): 0.7 | fold change in IC50, pol ([1]; Sample 39 (T369A)): 2.8 fold | pol/PR-RT ratio ([1]; Sample 39 (T369A)): 9.0 | fold change in IC50, pol ([1]; Sample 42 (G190G/A)): 7.1 fold | pol/PR-RT ratio ([1]; Sample 42 (G190G/A)): 0.2 | fold change in IC50, pol ([1]; Sample 45): 0.3 fold | pol/PR-RT ratio ([1]; Sample 45): 1.1 | fold change in IC50, pol [1, 3]: 400.0 fold | pol/PR-RT ratio [1, 3]: 1.0 | fold change in IC50, pol ([1]; Sample 50 (K103N)): 72.7 fold | pol/PR-RT ratio ([1]; Sample 50 (K103N)): 0.5 | fold change in IC50, pol ([1]; Sample 51): 0.7 fold | pol/PR-RT ratio ([1]; Sample 51): 1.6 | fold change in IC50, pol ([1]; Sample 52): 1.8 fold | pol/PR-RT ratio ([1]; Sample 52): 0.9 | fold change in IC50, pol [1, 4]: 400.0 fold | pol/PR-RT ratio [1, 4]: 1.0 | fold change in IC50, pol [1, 5]: 400.0 fold and 400.00 fold | pol/PR-RT ratio [1, 5]: 6.3 | fold change in IC50, pol ([1]; Sample 64 (T369T/A)): 0.3 fold | pol/PR-RT ratio ([1]; Sample 64 (T369T/A)): 0.3 | fold change in IC50, pol ([1]; Sample 69): 1.6 fold | pol/PR-RT ratio ([1]; Sample 69): 1.6 | fold change in IC50, pol ([1]; Sample 72): 1.1 fold | pol/PR-RT ratio ([1]; Sample 72): 1.6 | fold change in IC50, pol ([1]; Sample 80 (K103K/N, Y181Y/C)): 17.0 fold | pol/PR-RT ratio ([1]; Sample 80 (K103K/N, Y181Y/C)): 0.4 | fold change in IC50, pol ([1]; Sample 81 (K103N, P225H)): 114.0 fold | pol/PR-RT ratio ([1]; Sample 81 (K103N, P225H)): 1.2 | fold change in IC50, pol ([1]; Sample 84): 0.9 fold | pol/PR-RT ratio ([1]; Sample 84): 1.2 | fold change in IC50, pol ([1]; Sample 85): 400.0 fold | pol/PR-RT ratio ([1]; Sample 85): 3.0 | fold change in IC50, pol ([1]; Sample 87): 1.4 fold | pol/PR-RT ratio ([1]; Sample 87): 1.7 | fold change in IC50, pol ([1]; Sample 89 (L1001, K103N)): 400.0 fold | pol/PR-RT ratio ([1]; Sample 89 (L1001, K103N)): 10.8 | fold change in IC50, pol [1, 6]: 400.0 fold | pol/PR-RT ratio [1, 6]: 1.0 | fold change in IC50, pol ([1]; Sample 92): 1.1 fold | pol/PR-RT ratio ([1]; Sample 92): 1.0 | fold change in IC50, pol ([1]; Sample 93): 1.4 fold | pol/PR-RT ratio ([1]; Sample 93): 0.9 | change in resistance on addition of mutation ([2]; E399D mutation, patient 50 background): increased | change in resistance on addition of mutation ([2]; E399D mutation, patient 58 or patient 62 background): not | change in resistance on addition of mutation ([2]; N348I and T369I mutations, POL test vectors of patients 50, 58, 62): increased resistance | resistance of test vector ([2]; T369I introduced into PR-RT segment of patient sample 62 (contains K103N)): enhanced resistance
